Source: PubChem BioAssay (NCI)
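Briefly, cells in 96-well plates were exposed to five compound concentrations for 48 h, and endpoints were estimated by linear interpolation. Here, GI50 denotes the concentration required for 50% inhibition of growth. At the TGI there is no net growth.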

Columns and labels:
Test in all cases: inhibition of tumour cell growth, NCI panel, 48 h
KM12 colon = tested on: KM12 colon
ACHN renal = tested on: ACHN renal
RXF 393 renal = tested on: RXF 393 renal
COLO 205 colon = tested on: COLO 205 colon
OVCAR-5 ovarian = tested on: OVCAR-5 ovarian
MDA-MB-231 breast = tested on: MDA-MB-231 breast
SF-268 CNS = tested on: SF-268 CNS
M14 melanoma = tested on: M14 melanoma
NCI-H522 lung = tested on: NCI-H522 lung
HT29 colon = tested on: HT29 colon
SK-MEL-5 melanoma = tested on: SK-MEL-5 melanoma
UO-31 renal = tested on: UO-31 renal
DU-145 prostate = tested on: DU-145 prostate
HS 578T breast = tested on: HS 578T breast
OVCAR-8 ovarian = tested on: OVCAR-8 ovarian
K-562 leukemia = tested on: K-562 leukemia
BT-549 breast = tested on: BT-549 breast
NCI-H23 lung = tested on: NCI-H23 lung
MOLT-4 leukemia = tested on: MOLT-4 leukemia
SK-MEL-2 melanoma = tested on: SK-MEL-2 melanoma
NCI-H226 lung = tested on: NCI-H226 lung
786-0 renal = tested on: 786-0 renal
OVCAR-4 ovarian = tested on: OVCAR-4 ovarian
UACC-257 melanoma = tested on: UACC-257 melanoma
U251 CNS = tested on: U251 CNS
SW-620 colon = tested on: SW-620 colon
A498 renal = tested on: A498 renal
EKVX NSCLC = tested on: EKVX NSCLC
OVCAR-3 ovarian = tested on: OVCAR-3 ovarian
SK-OV-3 ovarian = tested on: SK-OV-3 ovarian
PC-3 prostate = tested on: PC-3 prostate
HL-60(TB) leukemia = tested on: HL-60(TB) leukemia
SF-295 CNS = tested on: SF-295 CNS
A549 NSCLC = tested on: A549 NSCLC
IGROV1 ovarian = tested on: IGROV1 ovarian
RPMI-8226 leukemia = tested on: RPMI-8226 leukemia
HCT-116 colon = tested on: HCT-116 colon
SF-539 CNS = tested on: SF-539 CNS
T-47D breast = tested on: T-47D breast
HCC-2998 colon = tested on: HCC-2998 colon
CAKI-1 renal = tested on: CAKI-1 renal
SK-MEL-28 melanoma = tested on: SK-MEL-28 melanoma
LOX IMVI melanoma = tested on: LOX IMVI melanoma
SNB-75 CNS = tested on: SNB-75 CNS
SR leukemia = tested on: SR leukemia
MCF7 breast = tested on: MCF7 breast
TK-10 renal = tested on: TK-10 renal
MALME-3M melanoma = tested on: MALME-3M melanoma
NCI/ADR-RES ovarian = tested on: NCI/ADR-RES ovarian
HOP-62 NSCLC = tested on: HOP-62 NSCLC
SN12C renal = tested on: SN12C renal
CCRF-CEM leukemia = tested on: CCRF-CEM leukemia
HCT-15 colon = tested on: HCT-15 colon
NCI-H460 lung = tested on: NCI-H460 lung
SNB-19 CNS = tested on: SNB-19 CNS
MDA-MB-435 = tested on: MDA-MB-435
HOP-92 NSCLC = tested on: HOP-92 NSCLC
UACC-62 melanoma = tested on: UACC-62 melanoma

Question: `NC(=O)CC1(O)C=C(Br)C(=O)C(Br)=C1` was tested. Which GI50 (KM12 colon) did it give?
Answer: 13.8 µM

Question: What about the TGI (KM12 colon) of the same compound?
Answer: 27.2 µM

Question: And the GI50 (ACHN renal)?
Answer: 3.44 µM

Question: And the TGI (ACHN renal)?
Answer: 12.3 µM

Question: And the GI50 (RXF 393 renal)?
Answer: 1.9 µM

Question: And the TGI (RXF 393 renal)?
Answer: 4.05 µM

Question: What about the GI50 (COLO 205 colon) of the same compound?
Answer: 1.25 µM

Question: What about the TGI (COLO 205 colon) of the same compound?
Answer: 2.63 µM

Question: What about the GI50 (OVCAR-5 ovarian) of the same compound?
Answer: 8.08 µM

Question: What about the TGI (OVCAR-5 ovarian) of the same compound?
Answer: 21.4 µM

Question: And the GI50 (MDA-MB-231 breast)?
Answer: 6.85 µM

Question: What about the TGI (MDA-MB-231 breast) of the same compound?
Answer: 20.2 µM

Question: What about the GI50 (SF-268 CNS) of the same compound?
Answer: 9.09 µM

Question: What about the TGI (SF-268 CNS) of the same compound?
Answer: 21.2 µM

Question: And the GI50 (M14 melanoma)?
Answer: 2.64 µM

Question: And the TGI (M14 melanoma)?
Answer: > 32.8 µM

Question: What about the GI50 (NCI-H522 lung) of the same compound?
Answer: 0.326 µM

Question: And the TGI (NCI-H522 lung)?
Answer: 1.44 µM

Question: And the GI50 (HT29 colon)?
Answer: 4.03 µM

Question: What about the TGI (HT29 colon) of the same compound?
Answer: 19 µM

Question: What about the GI50 (SK-MEL-5 melanoma) of the same compound?
Answer: 12.5 µM

Question: And the TGI (SK-MEL-5 melanoma)?
Answer: 25.6 µM

Question: And the GI50 (UO-31 renal)?
Answer: 2.17 µM

Question: What about the TGI (UO-31 renal) of the same compound?
Answer: 11.2 µM

Question: And the GI50 (DU-145 prostate)?
Answer: 6.05 µM

Question: What about the TGI (DU-145 prostate) of the same compound?
Answer: 19 µM

Question: And the GI50 (HS 578T breast)?
Answer: 17.8 µM

Question: What about the TGI (HS 578T breast) of the same compound?
Answer: 46 µM

Question: And the GI50 (OVCAR-8 ovarian)?
Answer: 2.88 µM

Question: What about the TGI (OVCAR-8 ovarian) of the same compound?
Answer: 9.42 µM

Question: What about the GI50 (K-562 leukemia) of the same compound?
Answer: 2.22 µM

Question: And the TGI (K-562 leukemia)?
Answer: 8.73 µM

Question: And the GI50 (BT-549 breast)?
Answer: 1.91 µM

Question: What about the TGI (BT-549 breast) of the same compound?
Answer: 6.97 µM

Question: What about the GI50 (NCI-H23 lung) of the same compound?
Answer: 8.99 µM

Question: What about the TGI (NCI-H23 lung) of the same compound?
Answer: 24.6 µM

Question: What about the GI50 (MOLT-4 leukemia) of the same compound?
Answer: 2.29 µM

Question: What about the TGI (MOLT-4 leukemia) of the same compound?
Answer: 5.35 µM

Question: What about the GI50 (SK-MEL-2 melanoma) of the same compound?
Answer: 5.21 µM

Question: What about the TGI (SK-MEL-2 melanoma) of the same compound?
Answer: 18.4 µM

Question: What about the GI50 (NCI-H226 lung) of the same compound?
Answer: 20.5 µM

Question: And the TGI (NCI-H226 lung)?
Answer: 46.3 µM

Question: And the GI50 (786-0 renal)?
Answer: 8.76 µM

Question: What about the TGI (786-0 renal) of the same compound?
Answer: > 35.7 µM

Question: What about the GI50 (OVCAR-4 ovarian) of the same compound?
Answer: 4.58 µM

Question: And the TGI (OVCAR-4 ovarian)?
Answer: 15.9 µM

Question: What about the GI50 (UACC-257 melanoma) of the same compound?
Answer: 1.9 µM

Question: And the TGI (UACC-257 melanoma)?
Answer: 4.06 µM

Question: And the GI50 (U251 CNS)?
Answer: 10.6 µM

Question: And the TGI (U251 CNS)?
Answer: 24.1 µM

Question: What about the GI50 (SW-620 colon) of the same compound?
Answer: 1.77 µM

Question: What about the TGI (SW-620 colon) of the same compound?
Answer: 3.47 µM

Question: What about the GI50 (A498 renal) of the same compound?
Answer: 15.8 µM

Question: And the TGI (A498 renal)?
Answer: 29.3 µM

Question: What about the GI50 (EKVX NSCLC) of the same compound?
Answer: 5.84 µM

Question: What about the TGI (EKVX NSCLC) of the same compound?
Answer: 19.7 µM

Question: What about the GI50 (OVCAR-3 ovarian) of the same compound?
Answer: 2.22 µM

Question: And the TGI (OVCAR-3 ovarian)?
Answer: 5.34 µM

Question: What about the GI50 (SK-OV-3 ovarian) of the same compound?
Answer: 17.9 µM

Question: What about the TGI (SK-OV-3 ovarian) of the same compound?
Answer: 32.3 µM

Question: And the GI50 (PC-3 prostate)?
Answer: 7.65 µM

Question: And the TGI (PC-3 prostate)?
Answer: 24.9 µM

Question: And the GI50 (HL-60(TB) leukemia)?
Answer: 1.85 µM

Question: And the TGI (HL-60(TB) leukemia)?
Answer: 4.64 µM

Question: And the GI50 (SF-295 CNS)?
Answer: 12.6 µM

Question: And the TGI (SF-295 CNS)?
Answer: 26.5 µM

Question: And the GI50 (A549 NSCLC)?
Answer: 19 µM

Question: And the TGI (A549 NSCLC)?
Answer: 37.8 µM

Question: What about the GI50 (IGROV1 ovarian) of the same compound?
Answer: 6.57 µM

Question: What about the TGI (IGROV1 ovarian) of the same compound?
Answer: 30 µM

Question: And the GI50 (RPMI-8226 leukemia)?
Answer: 2.25 µM

Question: And the TGI (RPMI-8226 leukemia)?
Answer: 6.82 µM

Question: And the GI50 (HCT-116 colon)?
Answer: 0.392 µM

Question: What about the TGI (HCT-116 colon) of the same compound?
Answer: 10.7 µM

Question: What about the GI50 (SF-539 CNS) of the same compound?
Answer: 2.95 µM

Question: What about the TGI (SF-539 CNS) of the same compound?
Answer: 9.15 µM

Question: What about the GI50 (T-47D breast) of the same compound?
Answer: 2.57 µM

Question: What about the TGI (T-47D breast) of the same compound?
Answer: 7.87 µM

Question: And the GI50 (HCC-2998 colon)?
Answer: 18.2 µM

Question: What about the TGI (HCC-2998 colon) of the same compound?
Answer: 33 µM

Question: And the GI50 (CAKI-1 renal)?
Answer: 0.94 µM

Question: And the TGI (CAKI-1 renal)?
Answer: 2.96 µM

Question: What about the GI50 (SK-MEL-28 melanoma) of the same compound?
Answer: 1.87 µM

Question: And the TGI (SK-MEL-28 melanoma)?
Answer: 3.7 µM

Question: And the GI50 (LOX IMVI melanoma)?
Answer: 3.65 µM

Question: And the TGI (LOX IMVI melanoma)?
Answer: 13 µM

Question: What about the GI50 (SNB-75 CNS) of the same compound?
Answer: 12.8 µM

Question: And the TGI (SNB-75 CNS)?
Answer: 26.2 µM

Question: What about the GI50 (SR leukemia) of the same compound?
Answer: 1.7 µM

Question: What about the TGI (SR leukemia) of the same compound?
Answer: 14.2 µM

Question: And the GI50 (MCF7 breast)?
Answer: 3.3 µM

Question: And the TGI (MCF7 breast)?
Answer: 15.3 µM

Question: And the GI50 (TK-10 renal)?
Answer: 1.65 µM

Question: And the TGI (TK-10 renal)?
Answer: 4.2 µM

Question: And the GI50 (MALME-3M melanoma)?
Answer: 2.12 µM

Question: And the TGI (MALME-3M melanoma)?
Answer: 4.36 µM

Question: What about the GI50 (NCI/ADR-RES ovarian) of the same compound?
Answer: 10.1 µM

Question: What about the TGI (NCI/ADR-RES ovarian) of the same compound?
Answer: > 94.4 µM

Question: What about the GI50 (HOP-62 NSCLC) of the same compound?
Answer: 26.1 µM

Question: And the TGI (HOP-62 NSCLC)?
Answer: > 61.2 µM

Question: And the GI50 (SN12C renal)?
Answer: 9.05 µM

Question: And the TGI (SN12C renal)?
Answer: 23.4 µM

Question: What about the GI50 (CCRF-CEM leukemia) of the same compound?
Answer: 0.194 µM

Question: And the TGI (CCRF-CEM leukemia)?
Answer: 0.434 µM

Question: And the GI50 (HCT-15 colon)?
Answer: 2.65 µM

Question: And the TGI (HCT-15 colon)?
Answer: 7.75 µM

Question: What about the GI50 (NCI-H460 lung) of the same compound?
Answer: 18.5 µM

Question: What about the TGI (NCI-H460 lung) of the same compound?
Answer: 37 µM

Question: What about the GI50 (SNB-19 CNS) of the same compound?
Answer: 18.1 µM

Question: What about the TGI (SNB-19 CNS) of the same compound?
Answer: 32.6 µM

Question: What about the GI50 (MDA-MB-435) of the same compound?
Answer: 2.04 µM

Question: What about the TGI (MDA-MB-435) of the same compound?
Answer: 7.31 µM

Question: What about the GI50 (HOP-92 NSCLC) of the same compound?
Answer: 1.85 µM

Question: What about the TGI (HOP-92 NSCLC) of the same compound?
Answer: 4.26 µM

Question: And the GI50 (UACC-62 melanoma)?
Answer: 4.21 µM

Question: And the TGI (UACC-62 melanoma)?
Answer: 15.8 µM
